This note sets out measurements from US20240166602A1, “SUBSTITUTED DIARYL COMPOUND AS WELL AS PREPARATION METHOD AND APPLICATION THEREOF” (SHANDONG FIRST MEDICAL UNIV & SHANDONG ACADEMY OF MEDICAL …, priority 2021, published 2024).

Holding throughout (format): cell-based
For assay [1], the system named is human colon cancer (LOVO) cells. Nature of the assay: MTT tumor cell growth inhibition, human colon cancer (LOVO). Conditions: Homo sapiens, 48 h culture, MTT method, read-out: IC50 value of target compound against cancer cell proliferation, LOVO. How it is done:
(§1) Dissolve CHJ compound series with dimethyl sultbxide (DMSO, final concentration 0.4%), and use RPMI-1640 culture medium containing 15% fetal calf serum to prepare 1 mg/mL solution for future use. During drug administration in groups, use the culture medium to dilute it to the concentration needed.
(§2) Cell lines: human lung cancer (A549), Inman ovarian cancer (SKOV3), human melanoma (A375) and human colon cancer (LOVO) cell lines, all purchased from the Cell Bank of the Chinese Academy of Sciences, DMEM containing 15% fetal bovine serum (High Glucose) culture medium, placed in a 37° C., 5% CO2 incubator.
(§3) MTT is an oxidizing yellow dye with the chemical name of 3-(4,5-dimethyl-2-thiazolyl)-2,5-diphenyl-2-H-tetrazoliumbromide tetrazole bromide. The MMT method, also known as the MTT colorimetric method, can test the survival and growth of cells. The method is simple and easily accessible and often used to screet the substance with cytotoxic activity. The basic principle of testing, is that succinodehydrogenase can reduce exogenous MIT so that MTT is reduced to blueviolet crystal Formazan insoluble to water. The crystal deposits in cells. The succinodehydrogenase exists in the mitochondria of living cells, not in the dead cells. Therefore, the chromogenic reaction can only take place in living cells. Then, dissolve the blueviolet crystal Formazan contained in cells with dimethyl sulfoxide (DMSO), and measure its absorbancy with microplate reader so that the count of living cells is reflected indirectly. Within the scope of certain cell count, the amount of blueviolet crystal Formazan formed is positively correlated to the count of living cells.
(§4) Human lung cancer (A549), human ovarian cancer (SKOV3), human melanoma (A375) and human colon cancer (LOVO) ceilsare all adherent. Based on the growth rate of tumor cells, wash the adherent tumor cells in the logarithmic phase and digest them in 0.25% EDTA pancreatic enzyme. Adjust the cell count to 1×10^5/mL and inoculate the cells in 96-pore plate, each pore containing 100 μL. Culture the cells in the 37° C. CO2 incubator, and administer the drug 24 h later. Add pharmaceutical (CJH compound series) of different concentrations to the administration group. Set up 5 dosage groups for each pharmaceutical, respectively 100, 10, 1, 0.1, 0.01 μmol/L. Set up three complex pores for each concentration. Set up blank control, DMSO (0.8%) solvent control and cis-platinum positive control. After 48 h of culture in the 37 ° C. incubator containing 5% CO2, measure the OD value through MTT method and calculate the cell inhibition ratio.
(§5) After 48 h of culture of human lung cancer (A549), human ovarian cancer (SKOV3). human melanoma (A375) and human colon cancer (LOVO) cells, stop it and add 10 μL 0.5% MTT solution to each pore. Place it in the CO2 incubator for 4 h. Remove the liquid from each pore, respectively add 0.2 mL DMSO solution, and oscillate it adequately on the table concentrator under low frequency so that the blueviolet crystal Formazan is dissolved adequately. Place it in the microplate reader and record the OD value at the wavelength of […]. Calculate the average OD value of three parallel pores of different concentrations, and calculate the cell inhibition ratio and IC50 of each tested pharmaceutical under different concentrations based on the average.
(§6) Inhibition ratio (%)=[1-tested sample OD/negative control group OD]×100%.
On the technique in general: Tetrazolium assays rely on reduction of a dye to a coloured formazan, in cell work by metabolically active cells.

Assay [2] relates to human melanoma (A375) cells. Nature of the assay: MTT tumor cell growth inhibition, human melanoma (A375). Conditions: Homo sapiens, A-375; A375, 48 h culture, MTT method; read-out: IC50 value of target compound against cancer cell proliferation, A375. The procedure: as §1, §2, §3, §4, §5, §6
In assay [3] the test system is human lung cancer (A549) cells. Nature of the assay: MTT tumor cell growth inhibition, human lung cancer (A549). Conditions: Homo sapiens; A549, 48 h culture, MTT method; read-out: IC50 value of target compound against cancer cell proliferation, A549. The procedure:
as §1, §2, §3, §4, §5, §6

The test system of assay [4] is human ovarian cancer (SKOV3) cells. The assay is described as follows: MTT tumor cell growth inhibition, human ovarian cancer (SKOV3). To be noted: Homo sapiens, SK-OV-3; SKOV3, 48 h culture, MTT method; read-out: IC50 value of target compound against cancer cell proliferation, SKOV3. How it is done: as §1, §2, §3, §4, §5, §6

As to `COc1cc(CN(C)CC(O)COc2ccc(Cl)c(Cl)c2)ccc1OCCN1CCC(C)CC1` (stereo not shown) [CHJ04026, 1-(3,4-dichlophenoxy)-3-((3-methoxy-4-(2-(4-methylpiperidin-1-yl)ethoxy)benzyl) (methyl)amino)propan-2-ol], the IC50 in assay [1] was 0.82 ± 0.42 µM; in assay [2], 1.5 ± 0.06 µM; in assay [3], 0.97 ± 0.21 µM; in assay [4], 7.45 ± 2.26 µM.
For the compound `COc1cc(CN(C)CC(O)COc2ccccc2I)ccc1OCCN1CCC(C)CC1` (stereo not shown) [CHJ04027], the IC50 in assay [1] was 2.35 ± 1.04 µM; in assay [2], 0.73 ± 0.13 µM; in assay [3], 6.22 ± 1.34 µM; in assay [4] it was 3.02 ± 1.76 µM.
For the compound `COc1cc(CN(C)CC(O)COc2c(Cl)cc(Br)cc2Cl)ccc1OCCN1CCC(C)CC1` (stereo not shown) [CHJ04033, 1-(4-bromo-2,6-dichlorophenoxy)-3-((3-methoxy-4-(2-(4-methylpiperidin-1-yl)ethoxy)benzyl)(methyl)amino)propan-2-ol], the IC50 in assay [1] stood at 2.23 ± 1.26 µM; in assay [2], 0.92 ± 0.07 µM; in assay [3], 0.95 ± 0.37 µM; in assay [4] it was 6.22 ± 3.05 µM.
The matching figures for `COc1cc(CN(C)CC(O)COc2cc(Cl)cc(Br)c2)ccc1OCCN1CCC(C)CC1` (stereo not shown) [CHJ04034, 1-(3-bromo-5-chlorophenoxy)-3-((3-methoxy-4-(2-(4-methylpiperidin1-yl)ethoxy)benzyl)(methyl)amino)propan-2-ol]: 1.16 ± 0.94 µM, 0.65 ± 0.14 µM, 0.86 ± 0.45 µM and 3.06 ± 1.1 µM.
Regarding `COc1cc(CN(C)CC(O)COc2cccc(NC(C)=O)c2)ccc1OCCN1CCC(C)CC1` (stereo not shown) [CHJ04058, N-(3-(2-hydroxy-3((3-methoxy-4-(2-(4-methylpiperidin-1-yl)ethoxy)benzyl)(methyl)amino)propoxy)phenyl)acetamide], the IC50 in assay [1] turned out to be 54 ± 2.14 µM; in assay [2], 56.21 ± 0.55 µM; in assay [3], 245.3 ± 2.4 µM; in assay [4] it was 102 ± 1.48 µM.
Consider `COc1cc(CN(C)CC(O)COc2ccc(Cl)cc2Cl)ccc1OCCN1CCC(C)CC1` (stereo not shown) [CHJ04059, 1-(2,4-dichlorophenoxy)-3-((3-methoxy-4-(2-(4-methylpiperidin-1-yl)ethoxy)benzyl) (methyl)amino)propan-2-ol], for which the IC50 in assay [1] turned out to be 3.92 ± 0.56 µM; in assay [2], 3.23 ± 0.49 µM; in assay [3], 10.6 ± 3.37 µM; in assay [4], 3.26 ± 1.21 µM.
With `COc1cc(CN(C)CC(O)COc2ccc(C)c(Br)c2)ccc1OCCN1CCCC1` (stereo not shown) [CHJ04064, 1-(3-bromo-4-methylphenoxy)-3-((3-methoxy-4-(2-(pyrrolidin-1-yl)ethoxy)benzyl) (methyl)amino)propan-2-ol], the IC50 in assay [1] stood at 3.55 ± 2.14 µM; in assay [2] it was 9.24 ± 2.65 µM; in assay [3] it was 21.5 ± 3.65 µM; in assay [4] it was 17.1 ± 0.24 µM.
Turning to `COc1cc(CN(C)CC(O)COc2cc(Cl)cc(Cl)c2)ccc1OCCN1CCCC1` (stereo not shown) [CHJ04066, 1-(3,5-dichlorophenoxy)-3-((3-methoxy-4-(2-(pyrrolidin-1-yl)ethoxy)benzyl)(methyl)amino)propan-2-ol], the IC50 in assay [1] was 2.5 ± 0.65 µM; in assay [2], 10.3 ± 1.4 µM; in assay [3] it was 29.9 ± 2.45 µM; in assay [4], 77.1 ± 4.07 µM.
Consider `COc1cc(CN(C)CC(O)COc2ccc(Cl)c(Cl)c2)ccc1OCCN1CCCC1` (stereo not shown) [CHJ04072, 1-(3,4-dichlorophenoxy)-3-((3-methoxy-4-(2-(pyrrolidin-1-yl)ethoxy)benzyl)(methyl)amino)propan-2-ol], for which the IC50 in assay [1] was 5.21 ± 2.31 µM; in assay [2] it was 2.26 ± 0.37 µM; in assay [3] it was 12.5 ± 2.44 µM; in assay [4], 9.62 ± 4.23 µM.
Consider `COc1cc(CN(C)CC(O)COc2ccccc2C(F)(F)F)ccc1OCCN1CCC(C)CC1` (stereo not shown) [CHJ04082], for which the IC50 in assay [1] is 2.82 ± 1.05 µM; in assay [2], 7.51 ± 2.62 µM; in assay [3], 22.3 ± 1.98 µM; in assay [4], 28.5 ± 5.22 µM.
For the compound `COc1cc(CN(C)CC(O)COc2ccc(Cl)cc2)ccc1OCCN1CCC(C)CC1` (stereo not shown) [CHJ04083, 1-(4-chlorophenoxy)-3((3-methoxy-4-(2-(4-methylpiperidin-1-yl)ethoxy)benzyl)(methyl)amino)propan-2-ol], the IC50 is 1.23 ± 0.17 µM in assay [1], 2.44 ± 1.03 µM in assay [2], 13.3 ± 2.02 µM in assay [3] and 10.4 ± 1.43 µM in assay [4].
Taken in the same sequence, the figures for `COc1ccc(OCC(O)CN(C)Cc2ccc(OCCN3CCC(C)CC3)c(OC)c2)cc1` (stereo not shown) [CHJ04084, 1-((3-methoxy-4-(2-(4-methylpiperidin-1-yl)ethoxy)benzyl)(methyl)amino)-3-(4-methoxyphenoxy)propan-2-ol] were 7.54 ± 1.02 µM, 16.7 ± 2.48 µM, 42.7 ± 3.06 µM and 96.4 ± 2.72 µM.
Taken in the same sequence, the figures for `COc1cc(CN(C)CC(O)COc2ccccc2Cl)ccc1OCCN1CCC(C)CC1` (stereo not shown) [CHJ04085, 1-(2-chlorophenoxy)-3-((3-methoxy-4-(2-(4-methylpiperidin-1-yl)ethoxy)benzyl) (methyl)amino)propan-2-ol] were 1.94 ± 0.79 µM, 7.32 ± 1.8 µM, 28.8 ± 5.12 µM and 49.2 ± 1.97 µM.
Regarding `CCN(CC)CCOc1ccc(CN(C)CC(O)COc2ccccc2C(C)C)cc1OC` (stereo not shown) [CHJ04089, 1-((4-(2-(diethylamino)ethoxy)-3-methoxybenzyl)(methyl)amino)-3-(2-isopropylphenoxy)propan-2-ol], the IC50 in assay [1] worked out at 49.5 ± 3.54 µM; in assay [2], 15 ± 2.37 µM; in assay [3] it was 27.8 ± 1.73 µM; in assay [4], 42.7 ± 2.61 µM.
On to `CCN(CC)CCOc1ccc(CN(C)CC(O)COc2cc(C(F)(F)F)ccc2Br)cc1OC` (stereo not shown) [CHJ04090, 1-(2-bromo-5-(trifluoromethyl)phenoxy)-3-((4-(2-(diethylamino)ethoxy)-3-methoxybenzyl)(methyl)amino)propan-2-ol], for which the IC50 in assay [1] came out at 34 ± 2.59 µM; in assay [2] it was 11.7 ± 2.12 µM; in assay [3], 35 ± 2.21 µM; in assay [4] it was 36.4 ± 2.17 µM.
As to `CCN(CC)CCOc1ccc(CN(C)CC(O)COc2ccc(Cl)c(Cl)c2)cc1OC` (stereo not shown) [CHJ04091, 1-(3,4-dichlorophenoxy)-3-((4-(2-(diethylamino)ethoxy)-3-methoxybenzyl)(methyl)amino)propan-2-ol], the IC50 turned out to be 10.6 ± 3.2 µM in assay [1], 4.01 ± 3.11 µM in assay [2], 11.1 ± 1.33 µM in assay [3] and 17.8 ± 3.11 µM in assay [4].
Taken in the same sequence, the figures for `CCN(CC)CCOc1ccc(CN(C)CC(O)COc2ccc(F)c(Br)c2)cc1OC` (stereo not shown) [CHJ04092, 1-(3-bromo-4-fluorophenoxy)-3-((4-(2-(diethylamino)ethoxy)-3-methoxybenzyl)(methyl)amino)propan-2-ol] were 47.9 ± 3.43 µM, 11.2 ± 1.05 µM, 30.2 ± 2.76 µM and 34.5 ± 2.7 µM.
The matching figures for `CCN(CC)CCOc1ccc(CN(C)CC(O)COc2ccc(Br)c(C(F)(F)F)c2)cc1OC` (stereo not shown) [CHJ04093]: 14.5 ± 2.14 µM, 2.6 ± 1.22 µM, 20.1 ± 2.01 µM and 10.2 ± 1.69 µM.
For the compound `CCN(CC)CCOc1ccc(CN(C)CC(O)COc2c(Cl)cc(Br)cc2Cl)cc1OC` (stereo not shown) [CHJ04094, 1-(4-bromo-2,6-dichlorophenoxy)-3-((4-(2-(diethylamino)ethoxy)-3-methoxybenzyl) (methyl)amino)propan-2-ol], the IC50 in assay [1] is 28.5 ± 4.42 µM; in assay [2], 2.05 ± 1.01 µM; in assay [3], 18.4 ± 3.17 µM; in assay [4], 15.9 ± 2.11 µM.
